Experimental data from US11634393B2, “Substituted tolyl fungicides” (FMC CORPORATION, priority 2018, dated 2023).

Columns and labels:
Zymoseptoria tritici = assay: Test A: wheat leaf blotch, spray on wheat seedlings, disease control rating; format: in vivo; conditions: 100 = 100% disease control, 0 = no disease control relative to the controls; for pest or weed control at 250 ppm: Rate 250 ppm; for pest or weed control at 10 ppm: Rate 10 ppm
From the text: (§1) General protocol for preparing test suspensions for Tests A-F: the test compounds were first dissolved in acetone in an amount equal to 3% of the final volume and then suspended at the desired concentration (in ppm) in acetone and purified water (50/50 mix by volume) containing 250 ppm of the surfactant PEG400 (polyhydric alcohol esters). The resulting test suspensions were then used in Tests A-F.
The test solution was sprayed to the point of run-off on wheat seedlings. The following day the seedlings were inoculated with a spore suspension of Zymoseptoria tritici (the causal agent of wheat leaf blotch) and incubated in a saturated atmosphere at 24° C. for 48 h, and then moved to a growth chamber at 20° C. for 17 days, after which time disease ratings were made.
(§2) A rating of 100 indicates 100% disease control and a rating of 0 indicates no disease control (relative to the controls). A dash (-) indicates the compound was not tested.

[1] = tested on: Puccinia recondita f. sp. tritici; assay: Test B: wheat leaf rust, spray on wheat seedlings, disease control rating; format: in vivo; conditions: Puccinia recondita, 192 h, 100 = 100% disease control, 0 = no disease control relative to the controls; for pest or weed control at 250 ppm: Rate 250 ppm; for pest or weed control at 10 ppm: Rate 10 ppm
Method in brief: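 Compound in acetone (3% of final volume) was suspended at the stated ppm in acetone/water 50/50 with 250 ppm PEG400 and sprayed to run-off on wheat seedlings. Puccinia recondita spores were inoculated next day, then 24 h saturated atmosphere at 20 °C and 7 days at 20 °C. Rated 0–100% disease control versus controls.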

[2] = tested on: Blumeria graminis f. sp. tritici; assay: Test C: wheat powdery mildew, spray on wheat seedlings, disease control rating; format: in vivo; conditions: 192 h, 100 = 100% disease control, 0 = no disease control relative to the controls; for pest or weed control at 250 ppm: Rate 250 ppm; for pest or weed control at 10 ppm: Rate 10 ppm
From the text: as §1
The test suspension was sprayed to the point of run-off on wheat seedlings. The following day the seedlings were inoculated with a spore dust of Blumeria graminis f. sp. tritici, (also known as Erysiphe graminis f. sp. tritici, the causal agent of wheat powdery mildew) and incubated in a growth chamber at 20° C. for 8 days, after which time visual disease ratings were made.
as §2

Phakopsora pachyrhizi = assay: Test D: Asian soybean rust, spray on soybean seedlings, disease control rating; format: in vivo; conditions: Phakopsora pachyrhizi, 216 h, 100 = 100% disease control, 0 = no disease control relative to the controls; for pest or weed control at 250 ppm: Rate 250 ppm; for pest or weed control at 10 ppm: Rate 10 ppm
Method in brief: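 Soybean seedlings sprayed to run-off with compound suspension (ppm, in 50/50 acetone/water with 250 ppm PEG400), inoculated next day with P. pachyrhizi spores, held 24 h saturated at 22°C then 8 days at 22°C. Visual rating 0-100% disease control relative to controls.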

Botrytis cinerea = assay: Test E: tomato Botrytis, spray on tomato seedlings, disease control rating; format: in vivo; conditions: 100 = 100% disease control, 0 = no disease control relative to the controls; for pest or weed control at 250 ppm: Rate 250 ppm; for pest or weed control at 10 ppm: Rate 10 ppm
From the text: as §1
The test suspension was sprayed to the point of run-off on tomato seedlings. The following day the seedlings were inoculated with a spore suspension of Botrytis cinerea (the causal agent of tomato Botrytis) and incubated in a saturated atmosphere at 20° C. for 48 h, and then moved to a growth chamber at 24° C. for 3 days, after which time visual disease ratings were made.
as §2

melting point [°C] | Compound | pest or weed control at 250 ppm (Zymoseptoria tritici) [%] | pest or weed control at 250 ppm [1] [%] | pest or weed control at 250 ppm [2] [%] | pest or weed control at 250 ppm (Phakopsora pachyrhizi) [%] | pest or weed control at 250 ppm (Botrytis cinerea) [%] | pest or weed control at 10 ppm (Zymoseptoria tritici) [%] | pest or weed control at 10 ppm [1] [%] | pest or weed control at 10 ppm [2] [%] | pest or weed control at 10 ppm (Phakopsora pachyrhizi) [%] | pest or weed control at 10 ppm (Botrytis cinerea) [%]
– | COC(=O)NCc1cc(-c2cnn(-c3c(F)cc([N+](=O)[O-])cc3F)n2)ccc1C [Compound 118, methyl N-[[5-[2-(2,6-difluoro-4-nitrophenyl)-2H-1,2,3-triazol-4-yl]-2-methylphenyl]methyl]carbamate] | 1 | 0 | 0 | 0 | 0 | – | – | – | – | –
– | COC(=O)NCc1cc(-c2ccn(-c3c(F)cc([N+](=O)[O-])cc3F)n2)ccc1C [Compound 1, methyl N-[[5-[1-(2,6-difluoro-4-nitrophenyl)-1H-pyrazol-3-yl]-2-methylphenyl]methyl]carbamate] | – | – | – | – | – | 0 | 68 | 0 | 44 | 0
106 to 108 | COC(=O)NCc1cc(-c2ccn(-c3c(F)cc(C(F)(F)F)cc3F)n2)ccc1C [Compound 64, methyl N-[[5-[1-[2,6-difluoro-4-(trifluoromethyl)phenyl]-1H-pyrazol-3-yl]-2-methylphenyl]methyl]carbamate] | – | – | – | – | – | 0 | 100 | 89 | 100 | 0
125 to 129 | COC(=O)NCc1cc(-c2cc(C)n(-c3c(F)cccc3F)n2)ccc1C [Compound 100] | – | – | – | – | – | – | 0 | – | 0 | –
175 to 179 | COC(=O)NCc1cc(-c2ncn(-c3c(F)cc(Br)cc3F)n2)ccc1C [Compound 104] | – | – | – | – | – | – | 100 | – | 90 | –
128 to 132 | COC(=O)NCc1cc(-c2cc(C)n(-c3c(F)cc(OC)cc3F)n2)ccc1C [Compound 102] | – | – | – | – | – | – | 0 | – | 0 | –
148 to 152 | COC(=O)NCc1cc(-c2cn(-c3c(Cl)cc(OC)cc3Cl)nn2)ccc1C [Compound 123] | – | – | – | – | – | – | 0 | – | 0 | –
160 to 164 | COC(=O)NCc1cc(-c2cn(-c3c(F)cc(Br)cc3F)nn2)ccc1C [Compound 126] | – | – | – | – | – | – | 57 | – | 0 | –
146 to 150 | COC(=O)NCc1cc(-c2cc(C)n(-c3c(Cl)cccc3Cl)n2)ccc1C [Compound 101] | – | – | – | – | – | – | 0 | – | 0 | –
– | COC(=O)NCc1cc(-c2ccn(-c3c(F)cc(C(C)C)cc3F)n2)ccc1C [Compound 63, methyl N-[[5-[1-[2,6-difluoro-4-(1-methylethyl)phenyl]-1H-pyrazol-3-yl]-2-methylphenyl]methyl]carbamate] | – | – | – | – | – | 26 | 100 | 98 | 100 | 0
125 to 129 | COC(=O)NCc1cc(-c2cn(-c3c(F)cc(F)cc3Cl)nn2)ccc1C [Compound 122] | 71 | 99 | 0 | 100 | 0 | – | – | – | – | –
148 to 149 | COC(=O)NCc1cc(-c2ccn(-c3c(F)cc(Cl)cc3F)n2)ccc1C [Compound 6, methyl N-[[5-[1-(4-chloro-2,6-difluorophenyl)-1H-pyrazol-3-yl]-2-methylphenyl]methyl]carbamate] | – | – | – | – | – | 7 | 98 | 0 | 100 | 0
171 to 174 | COC(=O)NCc1cc(-c2ccn(-c3c(F)cc(C#N)cc3F)n2)ccc1C [Compound 2] | – | – | – | – | – | 13 | 68 | 0 | 100 | 0
167 to 171 | COC(=O)NCc1cc(-c2cn(-c3c(Br)cc(OC)cc3Br)nn2)ccc1C [Compound 128] | – | – | – | – | – | – | 0 | – | 0 | –
130 to 131 | COC(=O)NCc1cc(-c2ccn(-c3c(F)cc(C)cc3F)n2)ccc1C [Compound 30] | – | – | – | – | – | – | 98 | – | 100 | –
102 to 103 | COC(=O)NCc1cc(-c2ccn(-c3c(F)cc(OC(F)F)cc3F)n2)ccc1C [Compound 15, methyl N-[[5-[1-[4-(difluoromethoxy)-2,6-difluorophenyl]-1H-pyrazol-3-yl]-2-methylphenyl]methyl]carbamate] | – | – | – | – | – | 0 | 99 | 69 | 100 | 0
143 to 147 | COC(=O)NCc1cc(-c2cn(-c3c(F)cc(C)cc3F)nn2)ccc1C [Compound 119] | – | – | – | – | – | – | 100 | – | 0 | –
158 to 162 | COC(=O)NCc1cc(-c2cn(-c3c(Br)cc(OC)cc3[N+](=O)[O-])nn2)ccc1C [Compound 129] | – | – | – | – | – | – | 0 | – | 0 | –
145 to 148 | COC(=O)NCc1cc(-c2cn(-c3c(Cl)cc(OC)cc3OC)nn2)ccc1C [Compound 120] | – | – | – | – | – | – | 0 | – | 0 | –
179 to 183 | COC(=O)NCc1cc(-c2ncn(-c3c(F)cc([N+](=O)[O-])cc3F)n2)ccc1C [Compound 107] | 28 | 80 | 43 | 0 | 0 | – | – | – | – | –
124 to 128 | COC(=O)NCc1cc(-c2ccn(-c3c(F)cc(OC4CC4)cc3F)n2)ccc1C [Compound 66, methyl N-[[5-[1-[4-(cyclopropyloxy)-2,6-difluorophenyl]-1H-pyrazol-3-yl]-2-methylphenyl]methyl]carbamate] | – | – | – | – | – | – | 100 | – | 100 | –
– | COC(=O)NCc1cc(-c2ccn(-c3c(F)cc(OC)cc3F)n2)ccc1C [Compound 3, methyl N-[[5-[1-(2,6-difluoro-4-methoxyphenyl)-1H-pyrazol-3-yl]-2-methylphenyl]methyl]carbamate] | – | – | – | – | – | 50 | 100 | 79 | 100 | 45
